# Activity calls are given as the source filed them.
# Key:
# [1] = inhibitors of intracellular T. cruzi replication, confirmation, NIH3T3 host cells, beta-gal luminescence (AID 2044); format: functional, cell-based;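 further: intracellular parasites grown in NIH/3T3 mouse fibroblasts as host cells; luminescent beta-galactosidase reporter signal from transgenic T. cruzi replicating inside host cells; inhibitors lower the luminescence signal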
# [2] = cytotoxicity toward NIH3T3 fibroblasts, dose response, counter-screen, cell-based, ATP luminescence, mouse fibroblasts (AID 2010); format: functional;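 further: cells exposed to compound for about 90 hours before reading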
# [3] = biological target: T1, Short transient receptor potential channel 4 (Mus musculus, UniProt Q9QUQ5); experiment: mouse TRPC4 channel inhibitors, dose response, cell-based, HEK293 TRPC4/mu-opioid, Fluo-4 calcium (AID 434942); format: functional;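 further: potency of inhibitors blocking the TRPC4 calcium response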
# T1 sequence (Q9QUQ5 whole entry): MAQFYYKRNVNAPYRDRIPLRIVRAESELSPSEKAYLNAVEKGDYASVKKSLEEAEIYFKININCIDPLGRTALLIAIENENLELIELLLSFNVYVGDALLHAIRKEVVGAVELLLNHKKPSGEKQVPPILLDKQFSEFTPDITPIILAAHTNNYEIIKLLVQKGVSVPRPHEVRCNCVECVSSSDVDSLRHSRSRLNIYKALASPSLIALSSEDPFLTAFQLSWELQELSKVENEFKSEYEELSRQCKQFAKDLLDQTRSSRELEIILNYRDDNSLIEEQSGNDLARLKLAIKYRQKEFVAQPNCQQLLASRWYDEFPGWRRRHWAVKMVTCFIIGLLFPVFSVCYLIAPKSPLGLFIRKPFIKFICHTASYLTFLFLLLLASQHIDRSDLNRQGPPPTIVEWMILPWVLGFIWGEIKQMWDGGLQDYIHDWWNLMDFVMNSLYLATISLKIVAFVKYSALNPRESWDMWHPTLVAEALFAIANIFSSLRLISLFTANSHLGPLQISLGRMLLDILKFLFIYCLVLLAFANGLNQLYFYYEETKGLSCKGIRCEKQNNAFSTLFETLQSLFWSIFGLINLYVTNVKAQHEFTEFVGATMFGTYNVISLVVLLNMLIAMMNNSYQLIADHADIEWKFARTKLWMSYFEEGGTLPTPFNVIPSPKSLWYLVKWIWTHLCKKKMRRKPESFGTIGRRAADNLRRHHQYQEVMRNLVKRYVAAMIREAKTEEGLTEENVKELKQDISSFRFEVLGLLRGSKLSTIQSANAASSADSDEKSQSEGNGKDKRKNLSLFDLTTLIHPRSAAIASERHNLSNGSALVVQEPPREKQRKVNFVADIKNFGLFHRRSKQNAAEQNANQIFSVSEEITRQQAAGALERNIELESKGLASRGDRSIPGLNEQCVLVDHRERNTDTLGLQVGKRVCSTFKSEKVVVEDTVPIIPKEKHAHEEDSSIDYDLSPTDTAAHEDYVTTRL
# [4] = biological target: T2, Ubiquitin-conjugating enzyme E2 N (Homo sapiens, UniProt P61088); format: functional;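 further: Dose-response confirmation in a TR-FRET assay detecting UBC13-driven polyubiquitin chain formation, inhibition measured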
# T2 sequence (P61088 whole entry): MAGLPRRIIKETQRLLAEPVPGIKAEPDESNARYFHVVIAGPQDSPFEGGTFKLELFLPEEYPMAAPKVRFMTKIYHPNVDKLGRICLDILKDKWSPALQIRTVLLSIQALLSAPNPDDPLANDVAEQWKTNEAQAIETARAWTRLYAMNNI
# [5] = microbe, parasite or virus in culture; format: functional; conditions: Mycobacterium tuberculosis
# [6] = system: Streptococcus sp. 'group A'; experiment: growth inhibition of control SK(-) GAS strain, dose response, counter-screen for streptokinase expression inhibitor project, luminescence, kanamycin, BacTiterGlo, confirmation (AID 1900); format: functional, organism-based
# [7] = biological target: T3, Streptokinase A (Streptococcus pyogenes serotype M1, UniProt P10520); experiment: S. pyogenes streptokinase expression inhibitors, potency, dose response, plasminogen activation absorbance, OD405 (AID 1914); format: functional, Streptococcus pyogenes M1 GAS;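 further: secreted streptokinase activity via plasminogen activation per viability signal from cell pellet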
# T3 sequence (P10520 whole entry): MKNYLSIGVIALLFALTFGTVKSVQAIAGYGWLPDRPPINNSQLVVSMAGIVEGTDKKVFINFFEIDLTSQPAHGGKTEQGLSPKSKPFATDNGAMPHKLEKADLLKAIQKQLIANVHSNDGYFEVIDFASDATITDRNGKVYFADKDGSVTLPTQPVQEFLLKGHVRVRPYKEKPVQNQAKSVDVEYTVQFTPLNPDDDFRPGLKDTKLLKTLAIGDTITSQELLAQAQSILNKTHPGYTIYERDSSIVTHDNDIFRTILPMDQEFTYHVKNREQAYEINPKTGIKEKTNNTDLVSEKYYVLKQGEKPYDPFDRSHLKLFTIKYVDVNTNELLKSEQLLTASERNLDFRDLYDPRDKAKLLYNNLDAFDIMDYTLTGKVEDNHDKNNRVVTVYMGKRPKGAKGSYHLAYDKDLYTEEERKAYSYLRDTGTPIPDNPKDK
# [8] = biological target: Large T antigen (Simian virus 40, UniProt P03070); format: functional, Betapolyomavirus macacae;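 further: Confirmatory-stage PubChem screen for compounds that inhibit SV40 T antigen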
# [9] = system: Streptococcus; experiment: Group A Streptococcus viability loss, dose response, counter-screen for streptokinase expression inhibitor project, luminescence, BacTiterGlo (AID 1915); format: functional, organism-based;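 further: potency for reduction of bacterial viability or growth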
# [10] = system: INS1; experiment: beta cell apoptosis inhibitors, cytokine rescue, dose response, luminescence, retest (AID 449756); format: functional, cell-based; conditions: Rattus norvegicus, INS1;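 further: cell death triggered by IL-1 beta plus TNF-alpha plus IFN-gamma mixture; protective hits raise ATP signal compared with cytokine alone wells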
# [11] = biological target: Cytochrome P450 2C9 (Homo sapiens, UniProt P11712)
# [12] = biological target: Cytochrome P450 2C19 (Homo sapiens, UniProt P33261); experiment: Cytochrome panel assay with activity outcomes. Panel member name: p450-cyp2c19 Compounds with AC50 equal or less than 10 uM are considered active; format: functional; conditions: read-out: AC50
# [13] = biological target: T4, Cytochrome P450 1A2 (Homo sapiens, UniProt P05177);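 further: PubChem cytochrome P450 panel assay, CYP1A2 panel member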
# T4 sequence (P05177 whole entry): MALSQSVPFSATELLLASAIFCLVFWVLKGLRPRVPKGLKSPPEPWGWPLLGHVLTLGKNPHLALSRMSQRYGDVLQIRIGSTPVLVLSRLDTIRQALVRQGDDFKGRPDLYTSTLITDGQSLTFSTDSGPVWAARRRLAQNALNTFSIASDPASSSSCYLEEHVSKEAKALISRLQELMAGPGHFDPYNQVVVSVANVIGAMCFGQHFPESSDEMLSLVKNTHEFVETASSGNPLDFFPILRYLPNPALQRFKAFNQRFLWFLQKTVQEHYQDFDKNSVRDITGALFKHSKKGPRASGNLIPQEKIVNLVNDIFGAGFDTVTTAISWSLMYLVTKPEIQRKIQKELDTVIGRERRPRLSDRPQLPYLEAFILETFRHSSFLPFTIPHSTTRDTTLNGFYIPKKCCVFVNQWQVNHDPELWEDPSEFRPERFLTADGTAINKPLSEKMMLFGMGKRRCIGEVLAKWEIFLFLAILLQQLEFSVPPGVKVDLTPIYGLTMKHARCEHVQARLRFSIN
# Cytochrome P450 2C19, sequence (P33261 whole entry): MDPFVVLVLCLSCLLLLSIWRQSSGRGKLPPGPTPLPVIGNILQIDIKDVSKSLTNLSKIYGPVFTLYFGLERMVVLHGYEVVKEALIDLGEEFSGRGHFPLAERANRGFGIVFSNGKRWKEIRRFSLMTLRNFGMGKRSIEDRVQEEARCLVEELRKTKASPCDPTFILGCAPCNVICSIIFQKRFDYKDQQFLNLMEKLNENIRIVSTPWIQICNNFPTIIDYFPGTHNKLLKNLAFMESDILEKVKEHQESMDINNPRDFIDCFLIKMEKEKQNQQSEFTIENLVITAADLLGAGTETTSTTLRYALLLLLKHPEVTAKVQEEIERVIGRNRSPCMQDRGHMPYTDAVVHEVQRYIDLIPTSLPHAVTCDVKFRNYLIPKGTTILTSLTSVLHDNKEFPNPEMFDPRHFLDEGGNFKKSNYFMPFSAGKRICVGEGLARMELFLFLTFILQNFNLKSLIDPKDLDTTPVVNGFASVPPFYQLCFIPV
# Cytochrome P450 2C9, sequence (P11712 whole entry): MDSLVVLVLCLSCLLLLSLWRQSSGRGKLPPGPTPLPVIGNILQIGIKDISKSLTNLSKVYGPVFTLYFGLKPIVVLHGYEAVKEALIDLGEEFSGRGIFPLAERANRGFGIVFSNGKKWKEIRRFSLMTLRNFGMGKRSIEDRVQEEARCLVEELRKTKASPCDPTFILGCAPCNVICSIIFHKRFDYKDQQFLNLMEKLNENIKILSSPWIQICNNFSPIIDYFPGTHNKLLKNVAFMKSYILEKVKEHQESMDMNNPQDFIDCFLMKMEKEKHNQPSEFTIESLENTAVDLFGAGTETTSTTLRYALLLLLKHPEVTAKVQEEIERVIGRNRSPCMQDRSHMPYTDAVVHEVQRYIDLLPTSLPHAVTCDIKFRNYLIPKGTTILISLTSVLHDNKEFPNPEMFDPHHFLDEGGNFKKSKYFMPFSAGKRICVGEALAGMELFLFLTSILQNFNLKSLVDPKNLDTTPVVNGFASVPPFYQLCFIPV
# Large T antigen, sequence (P03070 whole entry): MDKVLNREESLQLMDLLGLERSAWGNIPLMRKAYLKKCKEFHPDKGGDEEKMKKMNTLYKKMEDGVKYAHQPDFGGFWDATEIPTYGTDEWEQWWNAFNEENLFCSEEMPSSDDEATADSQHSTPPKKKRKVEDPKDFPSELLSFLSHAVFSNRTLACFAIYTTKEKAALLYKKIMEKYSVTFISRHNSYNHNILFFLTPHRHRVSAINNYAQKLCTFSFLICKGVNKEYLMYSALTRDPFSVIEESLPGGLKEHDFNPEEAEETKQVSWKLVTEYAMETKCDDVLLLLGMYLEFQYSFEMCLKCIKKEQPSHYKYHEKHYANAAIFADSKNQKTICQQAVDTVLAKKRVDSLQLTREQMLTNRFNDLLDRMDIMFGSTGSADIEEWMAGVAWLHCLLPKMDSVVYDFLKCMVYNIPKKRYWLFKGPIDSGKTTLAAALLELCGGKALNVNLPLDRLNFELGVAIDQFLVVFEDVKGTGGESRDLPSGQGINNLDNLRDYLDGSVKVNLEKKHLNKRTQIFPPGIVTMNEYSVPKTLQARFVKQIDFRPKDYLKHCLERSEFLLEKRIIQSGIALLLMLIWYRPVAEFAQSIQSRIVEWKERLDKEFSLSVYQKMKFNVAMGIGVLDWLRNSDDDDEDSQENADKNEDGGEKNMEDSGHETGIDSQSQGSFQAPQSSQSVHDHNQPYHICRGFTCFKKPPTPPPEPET
structure (smiles),measurement,setting,value
Cc1cc(-c2cn3ccccc3n2)c(C)n1-c1ccccc1,EC50,[1],1.43 µM (active)
same,EC50,[2],> 30 µM (not active)
same,EC50,[3],7.5 µM (active)
O=C(CCCCCN1C(=O)c2ccccc2C1=O)NCCc1nc2ccccc2[nH]1,IC50,[4],> 20 µM (inactive)
CCOC(=O)C(C)Sc1nc(-c2cccs2)ccc1C#N (stereo not drawn),CC50,[5],38.9 µM (active)
CC(C)(C)CN1CCNC[C@H]1Cc1cccc2ccccc12,IC50,[4],> 20 µM (inactive)
COc1cnc(-c2ccccn2)nc1Oc1ccc(Cl)c2ccccc12,EC50,[6],1.77 µM (active)
same,EC50,[7],> 150 µM (not active)
same,IC50,[8],7.48 µM (active)
same,CC50,[5],16.9 µM (active)
same,EC50,[9],20.1 µM (inconclusive)
same,AC50,[10],4.86 µM (active)
CC(C)(CCc1nc2ccccc2[nH]1)C(=O)O,AC50,[11],inconclusive
O=C(C1CCN(S(=O)(=O)c2cccc3cccnc23)CC1)N1CCN(c2ccccn2)CC1,AC50,[12],7.08 µM (inconclusive)
same,AC50,[13],20 µM (inconclusive)
same,AC50,[11],inconclusive
O/N=C/c1ccccc1Oc1ccc(Cl)cc1,EC50,[3],6.68 µM (active)
O=C(CSc1nc2nncc-2c(O)n1-c1ccccc1Br)NCc1ccccc1Cl,EC50,[3],2.99 µM (active)
Fc1cccc(Cl)c1CSc1nc[nH]n1,AC50,[12],39.8 µM (inconclusive)
same,AC50,[13],10 µM (inconclusive)
same,AC50,[11],inconclusive
Cc1ccc(S(=O)(=O)O/N=C2/CCCc3occc32)cc1,AC50,[12],35.5 µM (inconclusive)
same,AC50,[11],inconclusive

# — ChEMBL document CHEMBL1201862, “PubChem BioAssay data set” (2004)
